Laboratory results as given in US20210299079A1, “MONOMETHYL FUMARATE-CARRIER CONJUGATES AND METHODS OF THEIR USE” (Flagship Pioneering Innovations V, Inc., priority 2018, published 2021).
Structures can show the parent of a compound that is named as a salt.

Key:
[1] = In vitro Colonic Material Stability Assay; format: in vitro ADME; settings: colonic material slurry in YCFAC media, anaerobic, 1 or 10 μM
Outline: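 Anaerobically, a colonic material slurry (15% w/v) was inoculated into YCFAC or other suitable media. Compounds were added at 1 or 10 μM final. Samples taken at 0–2880 min were quenched with acetonitrile containing internal standard and analysed by LC/MS.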

[2] = test system: experimental autoimmune encephalomyelitis (EAE); experiment: In Vivo EAE Model of Multiple Sclerosis; design: species or system C57BL/6J mice; settings: Study 2, oral, amount approximately equimolar to 100 mg/kg DMF, 28 days
Description: For experimental autoimmune encephalomyelitis (EAE) study, 8- to 11-week-old C57BL/6J mice were anesthetized and subcutaneously injected with […] and […]. Pertussis toxin (200 ng/mouse) was applied i.p. on days 0. Daily clinical evaluation was performed via a 5-point scale, and the clinical progression was observed over 28 days (FIG. 2A). […] At the end of the study, flow cytometry analysis was performed on the spleen (n=8 per group). […] Statistical analysis was performed with GraphPad Prism (GraphPad Software). Unpaired t test was used to assess significance between the control (Vehicle) and each treatment group. For experimental autoimmune encephalomyelitis (EAE) studies, 8- to 11-week old C57BL/6J mice were anesthetized and subcutaneously injected with […] and […]. Pertussis toxin (200 ng/mouse) was applied intraperitoneally on day 0. Daily clinical evaluation as performed using a 5-point scale and the clinical progression was observed over 28 days (FIGS. 2C and 2D).

[3] = Stability of conjugates in Simulated Gastric Fluid (SGF); format: in vitro ADME; settings: SGF pH 1.6 with pepsin, 37° C., 1 μM compound
Outline: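 Compound at 1 μM (from 1 mM DMSO stock) in pH 1.6 NaCl medium with FaSSIF powder and 0.1 mg/mL pepsin, mixed at 37° C. Aliquots quenched with equal volume acetonitrile at T0 and regular intervals; LC/MS gives degradation rate.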

[4] = Stability of conjugates in Simulated Intestinal Fluid (SIF); format: in vitro ADME; settings: SIF pH 6.7 with pancreatin, 37° C., 1 μM compound
Outline: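 Compounds at 1 μM in fresh simulated intestinal fluid: FaSSIF powder in pH 6.7 phosphate buffer with pancreatin. Agitated at 37 °C; aliquots taken at T0 and regular intervals, quenched with 1 volume acetonitrile. Degradation rates determined by LC/MS.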

[5] = Gastrointestinal (GI) Exposure to Propionate (Study 1); format: in vivo, CD-1 mice; settings: mouse; for Propionate-d3 AUClast / Propionate-d3 Tmax: single oral dose: Propionate-d3 62 mg/kg, Compound 3-d12 110 mg/kg, Compound 6-d9 91 mg/kg
Description: (§1) In order to measure propionate concentrations along the GI track, CD-1 mice were orally administered a single dose of deuterated sodium propionate, Compound 3 comprising deuterated propionate, or Compound 6 comprising deuterated propionate (Propionate-d3, Compound 3-d12, and Compound 6-d9, respectively; suspension, 1% (w/v) methyl cellulose in deionized water). The amounts of compound dosed were normalized to provide approximately equimolar amounts of […] (Propionate-d3 at 62 mg/kg, Compound 3-d12 at 110 mg/kg, and Compound 6-d9 at 91 mg/kg). […] Blood samples were collected in K2EDTA tubes and stored on wet ice no more than 30 min and then further processed to plasma. GI samples were placed into separate labeled, pre-weighted collection tubes and frozen before analysis. Brain samples were homogenized prior to analysis. Samples were subsequently worked up and analyzed by LC-MS/MS for deuterated propionate concentration. Propionate concentrations versus time for different tissues are depicted in FIGS. 4A-4H and 5A-5C.

[6] = Gastrointestinal (GI) Exposure to Monomethylfumarate (MMF) (Study 2); format: in vivo, CD-1 mice; settings: mouse, samples of Study 1, single oral dose
Description: as §1
Samples from Example 6, Study 1 were also analyzed by LC-MS/MS for monomethylfumarate concentrations. MMF concentrations versus time for different tissues are depicted in FIGS. 6A-6F.

CCC(=O)O[C@H]1[C@H](OC(=O)CC)[C@H](OC(=O)/C=C/C(=O)OC)O[C@@H](C)[C@H]1OC(=O)CC [Compound 1, Methyl ((2S,3S,4R,5R,6S)-6-methyl-3,4,5-tris(propionyloxy)tetrahydro-2H-pyran-2-yl) fumarate]
Assay 3 (% Remaining at 24 h) [1]: C (C: >75% of the tested compound remaining)
EAE score (5-point scale) compared to control (vehicle only) [2]: lower EAE scores
Assay 1 (SGF) (% Remaining @ 1 hour) [3]: C (C: >75% of the tested compound remaining)

CCC(=O)OC[C@H]1O[C@@H](OC(=O)/C=C/C(=O)OC)[C@H](OC(=O)CC)[C@@H](OC(=O)CC)[C@@H]1OC(=O)CC [Compound 3, Methyl ((2S,3R,4S,5R,6R)-3,4,5-tris(propionyloxy)-6-((propionyloxy)methyl)tetrahydro-2H-pyran-2-yl) fumarate]
Assay 3 (% Remaining at 24 h) [1]: C (C: >75% of the tested compound remaining)
EAE score (5-point scale) compared to control (vehicle only) [2]: lower EAE scores
EAE score (5-point scale) compared to mice treated with dimethyl fumarate [2]: lower or similar EAE scores
Assay 1 (SGF) (% Remaining @ 1 hour) [3]: C (C: >75% of the tested compound remaining)
Assay 2 (SIF) (% @ Remaining 4 hours) [4]: B (B: 25-75% of the tested compound remaining)

[2H]C([2H])([2H])CC(=O)OCC1OC(OC(=O)C=CC(=O)OC)C(OC(=O)CC([2H])([2H])[2H])C(OC(=O)CC([2H])([2H])[2H])C1OC(=O)CC([2H])([2H])[2H] (stereo not shown) [Compound 3-d12]
Propionate-d3 AUClast ([5]; Brain): 1.18 nmol·h/g
Propionate-d3 Tmax ([5]; Brain): 0.25 h
Propionate-d3 AUClast ([5]; Cecum): 4010 nmol·h/g
Propionate-d3 Tmax ([5]; Cecum): 2.00 h
Propionate-d3 AUClast ([5]; Distal Colon): 2310 nmol·h/g
Propionate-d3 Tmax ([5]; Distal Colon): 4.00 h
Propionate-d3 AUClast ([5]; Distal Intestine): 3880 nmol·h/g
Propionate-d3 Tmax ([5]; Distal Intestine): 1.00 h
Propionate-d3 AUClast ([5]; Proximal Colon): 2910 nmol·h/g
Propionate-d3 Tmax ([5]; Proximal Colon): 2.00 h
Propionate-d3 AUClast ([5]; Proximal Intestine): 3160 nmol·h/g
Propionate-d3 Tmax ([5]; Proximal Intestine): 0.25 h
Propionate-d3 AUClast ([5]; Stomach): 4950 nmol·h/g
Propionate-d3 Tmax ([5]; Stomach): 1.00 h
region where the highest concentrations (Cmax) of propionate-d3 were observed ([5]; single oral dose, GI tissues): intestines (proximal and distal)
MMF AUClast ([6]; Cecum): 297 nmol·h/g
MMF Tmax ([6]; Cecum): 2.00 h
MMF AUClast ([6]; Distal Colon): 568 nmol·h/g
MMF Tmax ([6]; Distal Colon): 4.00 h
MMF AUClast ([6]; Distal Intestine): 156 nmol·h/g
MMF Tmax ([6]; Distal Intestine): 1.00 h
MMF AUClast ([6]; Proximal Colon): 465 nmol·h/g
MMF Tmax ([6]; Proximal Colon): 2.00 h
MMF AUClast ([6]; Proximal Intestine): 56.4 nmol·h/g
MMF Tmax ([6]; Proximal Intestine): 0.50 h
MMF AUClast ([6]; Stomach): 3180 nmol·h/g
MMF Tmax ([6]; Stomach): 1.00 h

CCCC(=O)O[C@@H]1[C@@H](OC(=O)CCC)[C@H](C)O[C@@H](OC(=O)/C=C/C(=O)OC)[C@@H]1OC(=O)CCC [Compound 15, Methyl ((2S,3R,4R,5S,6S)-3,4,5-tris(butyryloxy)-6-methyltetrahydro-2H-pyran-2-yl) fumarate]
Assay 3 (% Remaining at 24 h) [1]: C (C: >75% of the tested compound remaining)
EAE score (5-point scale) compared to control (vehicle only) [2]: lower EAE scores
Assay 1 (SGF) (% Remaining @ 1 hour) [3]: B (B: 25-75% of the tested compound remaining)
Assay 2 (SIF) (% @ Remaining 4 hours) [4]: A (A: <25% of the tested compound remaining)

CCC(=O)O[C@@H]1[C@@H](OC(=O)CC)[C@H](OC(=O)/C=C/C(=O)OC)OC[C@H]1OC(=O)CC [Compound 20, Methyl ((2S,3R,4S,5R)-3,4,5-tris(propionyloxy)tetrahydro-2H-pyran-2-yl) fumarate]
Assay 3 (% Remaining at 24 h) [1]: C (C: >75% of the tested compound remaining)
EAE score (5-point scale) compared to control (vehicle only) [2]: lower EAE scores
Assay 1 (SGF) (% Remaining @ 1 hour) [3]: C (C: >75% of the tested compound remaining)
Assay 2 (SIF) (% @ Remaining 4 hours) [4]: A (A: <25% of the tested compound remaining)

CCCC(=O)O[C@H]1[C@H](OC(=O)/C=C/C(=O)OC)OC[C@@H](OC(=O)CCC)[C@H]1OC(=O)CCC [Compound 24, Methyl ((2S,3R,4R,5R)-3,4,5-tris(butyryloxy)tetrahydro-2H-pyran-2-yl) fumarate]
EAE score (5-point scale) compared to control (vehicle only) [2]: lower EAE scores
Assay 1 (SGF) (% Remaining @ 1 hour) [3]: C (C: >75% of the tested compound remaining)
Assay 2 (SIF) (% @ Remaining 4 hours) [4]: A (A: <25% of the tested compound remaining)
